Source: US20130065834A1, “MODULATORS OF PROTEASOME ACTIVITY” (SALK INSTITUTE FOR BIOLOGICAL STUDIES, priority 2011, published 2013)
Entries after “also recorded” stand apart in the source; their conditions may differ. Residues, ends and D or L forms follow the SMILES beside them. *: point of attachment. Cbz = O=C(OCc1ccccc1)*

Assays:
[1] = test system: chymotrypsin-like activity of the proteasome; test: 26S proteasome fluorogenic peptidase assay in worm lysate, chymotrypsin-like (Z-GGL-AMC / Suc-LLVY-AMC); assay type: biochemical, C. elegans; settings: worms at 25° C., 100 μg ml^−1 for the first three days of adulthood; FIG. 11
Method: (§1) 26S proteasome activity assays. In vitro 26S proteasome activity assays were performed as previously described [Finley, D. Recognition and processing of ubiquitin-protein conjugates by the proteasome. Annual review of biochemistry 78, 477-513 (2009)]. Worms were lysed in proteasome activity assay buffer (50 mM Tris-HCl pH 7.5, 250 mM sucrose, 5 mM MgCl2, 0.5 mM EDTA, 2 mM ATP and 1 mM dithiothreitol) using a Precellys 24 homogenizer (Bertin technologies). Lysate was centrifuged at 10,000 g for 15 min at 4° C. 25 μg of total protein lysate was transferred to a 96-well microtiter plate (BD Falcon) and incubated with fluorogenic substrate. Fluorescence (380-nm excitation, 460-nm emission) was monitored on a microplate fluorometer (Infinite M1000, Tecan) every 5 min for 1 h at 25° C.
(§2) 26S proteasome fluorogenic peptidase assays. […] Methods in enzymology 398, 364-378 (2005)]. Briefly, worms were lysed in proteasome activity assay buffer (50 mM Tris-HCl pH 7.5, 250 mM sucrose, 5 mM MgCl2, 0.5 mM EDTA, 2 mM ATP and 1 mM dithiothreitol) using a Precellys 24 homogenizer (Bertin technologies). Lysate was centrifuged at 10,000 g for 15 min at 4° C. For each experiment, 25 μg of total protein lysate was transferred to a 96-well microtiter plate (BD Falcon) then fluorogenic substrate was added. For measuring the chymotrypsin-like activity of the proteasome either Z-Gly-Gly-Leu-AMC (Enzo) or Suc-Leu-Leu-Val-Tyr-AMC (Enzo) was used. Z-Leu-Leu-Glu-AMC (Enzo) was used to measure the caspase-like activity of the proteasome and Ac-Arg-Leu-Arg-AMC for the proteasome trypsin-like activity. Fluorescence (380-nm excitation, 460-nm emission) was monitored on a microplate fluorometer (Infinite M1000, Tecan) every 5 min for 1 h at 25° C.

[2] = molecular target: T1, chymotrypsin-like activity of the proteasome (Caenorhabditis elegans, UniProt Q9XUV0); test: as above; assay type: biochemical, C. elegans; settings: inhibitor 20 min prior to substrate, vs DMSO
T1 construct: worms were lysed in proteasome activity assay buffer; from tissue; host or cells: whole-worm lysate of adult C. elegans (N2, glp-1(e2141), fer-15;fem-1, daf-16;glp-1, rpn-6.1 OE and RNAi-fed strains)
T1 sequence (Q9XUV0 65-284): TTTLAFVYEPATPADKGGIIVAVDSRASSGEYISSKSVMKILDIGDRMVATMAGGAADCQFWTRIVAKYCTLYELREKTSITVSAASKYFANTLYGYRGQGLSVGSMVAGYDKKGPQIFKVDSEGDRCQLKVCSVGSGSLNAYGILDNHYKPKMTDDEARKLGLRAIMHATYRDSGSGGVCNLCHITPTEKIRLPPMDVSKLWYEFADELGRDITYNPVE
Method: as §1, §2

[3] = test system: H9 hESCs; test: quantitative RT-PCR in H9 hESCs; assay type: cell-based, human; settings: 62.5 nM 24 h, relative to DMSO
Method: Lentiviral infection of human stem cells. hESC colonies growing on Matrigel were incubated with mTesR1 medium containing 10 μM ROCK inhibitor (Y-27632) for one hApplicants' and individualized using Accutase 1×. 5×10^5 cells were infected in suspension with 10 μl of concentrated lentivirus in the presence of 10 μM ROCK inhibitor. Cell suspension was centrifuged to remove virus, passed through a mesh of […] to obtain individual cells and plated back on a feeder layer of fresh MEFs in hESC cell media supplemented with 10 μM ROCK inhibitor. After a few days in culture, small hES cell colonies arose. For LV-GFP and LV-shFOXOs stable lines, GFP positive colonies were selected and manually passaged onto fresh MEFs to establish new hESC cell lines. For LV-non-targeting shRNA, shPSMD11, shPSMC2, FOXO4 OE, FOXO4 AAA OE and PSMD11 OE stable lines, Applicants performed 1 μg/ml puromycin resistance selection during 3 days and then colonies were manually passaged onto fresh MEFs to establish new hESC cell lines. […]
RNA isolation and quantitative RT-PCR. Total RNA was extracted using RNAbee (Tel-Test Inc). cDNA was created using the Quantitect Reverse Transcriptase kit (Qiagen). […] Data was analyzed with the comparative 2ΔΔCt method using β-actin and GAPDH as housekeeping genes. […]

[4] = test system: polyubiquitinylated proteins, proteasome subunits, transcription factors; test: Western blot of human cell extracts; assay type: cell-based; settings: H9 hESCs; 62.5 nM 24 h
Method: Western Blot. For analysis of proteasome subunits, cells were collected in proteasome activity assay buffer supplemented with protease inhibitors (Roche) and lysed by passing 10 times through a 27 gauge needle attached to a 1 ml syringe. Lysate was centrifuged at 10,000 g for 10 min at 4° C. Protein concentration of the cell homogenates was determined using the BCA protein assay (Pierce). For analysis of transcription factor and polyubiquitinylated proteins, cells were harvested from tissue culture plates by cell scraping and lysed in protein cell lysis buffer (10 mM Tris-Cl pH7.4, 10 mM EDTA, 50 mM NaCl, 50 mM NaF, 1% Triton X-100, 0.1% SDS supplemented with 2 mM sodium orthovanadate, 1 mM PMSF and Complete Mini Protease and PhosSTOP inhibitor cocktail mix) for 2 hrs at 1,000 rpm and 4° C. in a Thermomixer. Protein concentrations were determined with a standard Bradford protein assay (BioRad). 20-50 μg of total protein were separated by SDS-PAGE, transferred to nitrocellulose membranes (Whatman) and subjected to immunoblotting. […]

[5] = test system: hESCs; test: MG-132 treatment of cultured cells, cell death and detachment; assay type: cell-based, human; settings: hESCs vs NPCs or neurons; data not shown
[6] = molecular target: T2, chymotrypsin-like activity of the proteasome (Homo sapiens, UniProt P28074); test: 26S proteasome fluorogenic peptidase assay in human cell extracts, chymotrypsin-like; assay type: biochemical; settings: H9 hESCs; 62.5 nM for 24 hours; vs DMSO
T2 construct: 15-25 μg of total protein of cell lysates were transferred to a 96-well microtiter plate; endogenous in cells; host or cells: H9 and HUES-6 hESCs and derived NPCs, neurons, trophoblasts and fibroblasts; BJ fibroblasts, astrocytes, HEK293T
T2 sequence (P28074 60-263): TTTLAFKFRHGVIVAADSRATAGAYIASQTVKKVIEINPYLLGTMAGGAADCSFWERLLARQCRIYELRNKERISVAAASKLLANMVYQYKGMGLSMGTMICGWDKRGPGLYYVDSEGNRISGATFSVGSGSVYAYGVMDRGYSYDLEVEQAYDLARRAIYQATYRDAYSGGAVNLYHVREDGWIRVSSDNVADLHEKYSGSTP
Method: 26S proteasome fluorogenic peptidase assays. In vitro assay of 26S proteasome activities was performed as previously described (Kisselev, A. F. & Goldberg, A. L., Methods in enzymology 398, 364-378 (2005)). Cells were collected in proteasome activity assay buffer (50 mM Tris-HCl (pH 7.5), 250 mM sucrose, 5 mM MgCl2, 0.5 mM EDTA, 2 mM ATP and 1 mM dithiothreitol) and lysed by passing 10 times through a 27 gauge needle attached to a 1 ml syringe. Lysate was centrifuged at 10,000 g for 10 min at 4° C. 15-25 μg of total protein of cell lysates were transferred to a 96-well microtiter plate (BD Falcon) and then the fluorogenic substrate was added to lysates. For measuring the chymotrypsin-like activity of the proteasome Applicants used either Z-Gly-Gly-Leu-AMC (Enzo) or Suc-Leu-Leu-Val-Tyr-AMC (Enzo). Applicants used Z-Leu-Leu-Glu-AMC (Enzo) to measure the caspase-like activity of the proteasome and Ac-Arg-Leu-Arg-AMC for the proteasome trypsin-like activity. Fluorescence (380-nm excitation, 460-nm emission) was monitored on a microplate fluorometer (Infinite M1000, Tecan) every 5 min for 1 h at 25° C. Protein concentration of the cell homogenates was determined using the BCA protein assay (Pierce).

[7] = fer-15(b26);fem-1(hc17) worm lysate

| Compound | proteasome activity in treated worms [1] | chymotrypsin-like proteasome activity (Z-GGL-AMC) [2, 7] | chymotrypsin-like proteasome activity (Z-GGL-AMC) ([2]; glp-1(e2141) worm lysate) | pluripotency markers (Real Time PCR) [3] | polyubiquitinylated proteins [4] | sensitivity to proteasome inhibition (cell death and detachment) [5] | proteasome activity in hESCs [6] |
| --- | --- | --- | --- | --- | --- | --- | --- |
| O=c1[nH]c(=O)n([C@H]2C[C@H](O)[C@@H](CO)O2)cc1F [FUdR, 5-fluoro-2′ deoxyuridine] | did not affect proteasome activity |  |  |  |  |  |  |
| CC(=O)N[C@@H](CSC(=O)[C@]1([C@@H](O)C(C)C)NC(=O)[C@H](C)[C@@H]1O)C(=O)O [lactacystin] |  | blocked activity from extracts; also recorded: blocked chymotrypsin-like proteasome activity | blocked activity from extracts; also recorded: blocked chymotrypsin-like proteasome activity |  |  |  |  |
| CC(C)C[C@@H](C=O)NC(=O)[C@H](CC(C)C)NC(=O)[C@H](CC(C)C)NC(=O)OCc1ccccc1 [MG-132] (Cbz-Leu-Leu-Leu-aldehyde) |  | blocked activity from extracts; also recorded: blocked chymotrypsin-like proteasome activity | blocked activity from extracts; also recorded: blocked chymotrypsin-like proteasome activity | decreased pluripotency markers; also recorded: induces a decrease in pluripotency markers | induces accumulation of polyubiquitinylated proteins | hESCs were more sensitive to proteasome inhibition than NPCs or neurons | sufficient to reduce proteasome activity; also recorded: dramatically decreases proteasome activity |
